Reference: patent publication US11492335B2, “Aryl or heteroaryl triazolone derivatives or salts thereof, or pharmaceutical compositions comprising the same” (YUHAN CORPORATION, priority 2018, dated 2022)
Where a name gives a salt, the structure may show the parent alone. Read-outs that look alike come from different tables or passages of the source.

Experiments:
Format in all cases: biochemical
recombinant human VAP-1 = molecular target: T1, recombinant human VAP-1 (Homo sapiens, UniProt Q16853); assay: Activity on recombinant human VAP-1, Amplex Red HRP-coupled hydrogen peroxide assay, benzylamine substrate; conditions: recombinant human VAP-1, benzylamine substrate, read-out: Inhibitory Activity (IC50, nM) human VAP-1
T1 construct: purchased R&D systems
T1 sequence (Q16853 1-763): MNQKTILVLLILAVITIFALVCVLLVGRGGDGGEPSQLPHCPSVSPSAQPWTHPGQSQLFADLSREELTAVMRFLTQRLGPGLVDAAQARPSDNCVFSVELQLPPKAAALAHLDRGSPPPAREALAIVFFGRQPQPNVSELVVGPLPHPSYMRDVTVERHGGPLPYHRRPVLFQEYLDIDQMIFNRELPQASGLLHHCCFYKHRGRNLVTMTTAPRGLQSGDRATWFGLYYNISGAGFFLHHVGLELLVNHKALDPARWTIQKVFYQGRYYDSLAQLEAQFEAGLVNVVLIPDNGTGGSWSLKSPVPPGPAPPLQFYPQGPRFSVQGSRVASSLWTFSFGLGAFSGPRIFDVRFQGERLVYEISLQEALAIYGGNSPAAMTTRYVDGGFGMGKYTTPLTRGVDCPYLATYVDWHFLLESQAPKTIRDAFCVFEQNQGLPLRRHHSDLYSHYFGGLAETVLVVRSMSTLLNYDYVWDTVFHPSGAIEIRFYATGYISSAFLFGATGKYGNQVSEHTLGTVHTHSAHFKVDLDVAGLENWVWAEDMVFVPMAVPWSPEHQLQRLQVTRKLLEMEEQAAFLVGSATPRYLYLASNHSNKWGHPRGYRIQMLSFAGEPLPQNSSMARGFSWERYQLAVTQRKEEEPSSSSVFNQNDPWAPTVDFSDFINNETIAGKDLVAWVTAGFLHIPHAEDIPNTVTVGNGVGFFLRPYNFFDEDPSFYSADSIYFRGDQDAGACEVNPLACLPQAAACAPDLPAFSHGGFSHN
Outline: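 Fluorescence of resorufin formed from H2O2 (ex 544 nm, em 590 nm) was tracked for 1-2 h after adding 1 mM benzylamine, 200 uM Amplex Red and 1 U/mL HRP to enzyme pretreated with compound for 30 min at 37 °C. IC50 values derive from four-variable logistic fits.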

[1] = molecular target: T2, recombinant human MAO-A (monoamine oxidase-A) (Homo sapiens, UniProt P21397); assay: Activity on recombinant human MAO-A, Amplex Red method, 0.5 mM tyramine substrate; conditions: read-out: Inhibitory Activity (IC50, nM) MAO-A
T2 construct: purchased Sigma-Aldrich
T2 sequence (P21397 1-527): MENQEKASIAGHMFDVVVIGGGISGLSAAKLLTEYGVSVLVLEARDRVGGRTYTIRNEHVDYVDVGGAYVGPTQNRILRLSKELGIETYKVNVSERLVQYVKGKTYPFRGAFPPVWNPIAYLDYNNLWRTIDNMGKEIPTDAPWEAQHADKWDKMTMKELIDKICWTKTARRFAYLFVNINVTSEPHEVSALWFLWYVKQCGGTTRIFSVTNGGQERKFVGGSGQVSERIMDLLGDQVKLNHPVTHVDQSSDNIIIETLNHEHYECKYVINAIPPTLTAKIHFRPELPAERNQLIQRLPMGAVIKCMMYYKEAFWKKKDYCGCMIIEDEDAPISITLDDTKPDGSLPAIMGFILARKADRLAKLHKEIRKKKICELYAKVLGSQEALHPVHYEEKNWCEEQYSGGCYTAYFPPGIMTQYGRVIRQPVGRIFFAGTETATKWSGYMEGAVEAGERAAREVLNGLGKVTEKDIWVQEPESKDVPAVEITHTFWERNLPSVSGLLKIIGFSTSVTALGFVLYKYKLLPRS
Outline: (§1)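 Fluorescence (544/590 nm) of resorufin formed from Amplex Red by HRP and enzyme-generated H2O2 was followed over 1-2 h. Substrates were 0.5 mM tyramine for MAO-A and 1 mM benzylamine for MAO-B; compounds were preincubated with enzyme for 30 min at 37° C. IC50 came from four-parameter logistic fitting of signal-rate inhibition.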

[2] = molecular target: T3, recombinant human DAO (diamine oxidase) (Homo sapiens, UniProt P19801); assay: Activity on recombinant human DAO, Amplex Red method, 1 mM putrescine substrate; conditions: recombinant human DAO, read-out: Inhibitory Activity (IC50, nM) DAO
T3 construct: purchased R&D systems
T3 sequence (P19801 20-751): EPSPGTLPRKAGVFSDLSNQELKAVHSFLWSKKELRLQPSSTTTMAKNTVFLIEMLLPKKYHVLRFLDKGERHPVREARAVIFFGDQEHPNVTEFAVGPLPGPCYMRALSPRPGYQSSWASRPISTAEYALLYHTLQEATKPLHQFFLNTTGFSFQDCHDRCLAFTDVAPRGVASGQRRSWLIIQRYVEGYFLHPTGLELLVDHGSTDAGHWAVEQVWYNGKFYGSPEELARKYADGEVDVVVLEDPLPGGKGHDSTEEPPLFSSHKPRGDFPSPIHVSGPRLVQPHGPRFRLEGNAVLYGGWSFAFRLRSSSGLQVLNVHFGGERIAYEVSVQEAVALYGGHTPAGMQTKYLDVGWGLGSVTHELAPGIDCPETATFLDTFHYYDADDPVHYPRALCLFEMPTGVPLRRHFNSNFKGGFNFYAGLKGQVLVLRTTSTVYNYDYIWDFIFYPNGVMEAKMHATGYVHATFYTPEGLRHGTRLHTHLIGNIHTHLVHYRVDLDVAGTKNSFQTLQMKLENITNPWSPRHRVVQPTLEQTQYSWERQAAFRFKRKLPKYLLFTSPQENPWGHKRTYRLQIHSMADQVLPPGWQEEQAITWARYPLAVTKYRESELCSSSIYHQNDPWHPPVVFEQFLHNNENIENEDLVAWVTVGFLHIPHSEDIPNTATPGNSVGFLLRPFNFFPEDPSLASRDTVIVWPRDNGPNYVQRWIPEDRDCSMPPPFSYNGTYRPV
Outline: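 Inhibition of recombinant human DAO (diamine oxidase, R&D systems) was assessed with the Amplex Red Hydrogen Peroxide Assay Kit. Hydrogen peroxide produced from 1 mM putrescine was detected through an HRP-coupled reaction that converts Amplex Red into fluorescent resorufin, read at 544 nm excitation and 590 nm emission. IC50 values came from four-parameter logistic fits in GraphPad Prism.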

[3] = molecular target: T4, recombinant human MAO-B (monoamine oxidase-B) (Homo sapiens, UniProt P27338); assay: Activity on recombinant human MAO-B, Amplex Red method, 1 mM benzylamine substrate; conditions: read-out: Inhibitory Activity (IC50, nM) MAO-B
T4 construct: purchased Sigma-Aldrich
T4 sequence (P27338 1-520): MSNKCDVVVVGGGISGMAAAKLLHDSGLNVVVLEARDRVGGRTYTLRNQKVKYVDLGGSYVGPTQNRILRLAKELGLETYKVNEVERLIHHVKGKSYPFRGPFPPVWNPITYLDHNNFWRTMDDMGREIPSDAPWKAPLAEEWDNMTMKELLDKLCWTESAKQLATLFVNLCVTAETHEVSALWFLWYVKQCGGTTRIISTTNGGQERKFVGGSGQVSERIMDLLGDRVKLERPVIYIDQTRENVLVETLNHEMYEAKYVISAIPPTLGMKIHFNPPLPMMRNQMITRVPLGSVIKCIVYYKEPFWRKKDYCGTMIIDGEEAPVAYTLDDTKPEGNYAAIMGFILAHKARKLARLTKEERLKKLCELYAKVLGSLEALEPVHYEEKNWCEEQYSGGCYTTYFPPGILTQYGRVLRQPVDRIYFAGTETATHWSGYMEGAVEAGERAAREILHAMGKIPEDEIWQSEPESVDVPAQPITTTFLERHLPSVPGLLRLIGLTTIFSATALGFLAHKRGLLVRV
Outline: as §1

[4] = 1 mM putrescine, * = between 10 and 100 nM, ** = between 300 and 1000 nM

| IC50 (recombinant human VAP-1) | IC50 ([1]; 0.5 mM tyramine substrate) | IC50 ([2]; 1 mM putrescine substrate) | IC50 ([3]; 1 mM benzylamine substrate) | IC50 (recombinant human VAP-1; 30 min preincubation at 37° C.) | IC50 ([1]; 0.5 mM tyramine) | IC50 [2, 4] | IC50 ([3]; 1 mM benzylamine) | Structure (SMILES) |
| --- | --- | --- | --- | --- | --- | --- | --- | --- |
| 49 nM | > 100000 nM | 3500 nM | > 10000 nM |  |  |  |  | Cc1ccc(-c2ccc(C(=O)N3CCOCC3)cc2)nc1-n1cnn(C/C(=C/F)CN)c1=O [Example 211, 2-[(2E)-2-(aminomethyl)-3-fluoroprop-2-en-1-yl]-4-{3-methyl-6-[4-(morpholin-4-ylcarbonyl)phenyl]pyridin-2-yl}-2,4-dihydro-3H-1,2,4-triazol-3-one hydrochloride] |
| 0.39 nM | > 100000 nM | < 30 nM | 159 nM |  |  |  |  | CC(=O)Nc1cc(-c2ccnc(-n3cnn(C/C(=C/F)CN)c3=O)c2)ccn1 [Example 168, N-(2′-{1-[(2E)-2-(aminomethyl)-3-fluoroprop-2-en-1-yl]-5-oxo-1,5-dihydro-4H-1,2,4-triazol-4-yl}-4,4′-bipyridin-2-yl)acetamide] |
|  |  |  |  | 4.6 nM | 6600 nM | 26 nM | 17 nM | NC/C(=C/F)Cn1ncn(-c2ccc(Br)nc2)c1=O [Example 24, 2-[(2Z)-2-(aminomethyl)-3-fluoroprop-2-en-1-yl]-4-(6-bromopyridin-3-yl)-2,4-dihydro-3H-1,2,4-triazol-3-one] |
|  |  |  |  | 1.2 nM | 50000 nM | 24 nM | 3600 nM | CC(C)Sc1ccc(-c2cccc(-n3cnn(C/C(=C/F)CN)c3=O)c2)cc1 [Example 52, 2-[(2E)-2-(aminomethyl)-3-fluoroprop-2-en-1-yl]-4-[4′-(propan-2-ylsulfanyl)biphenyl-3-yl]-2,4-dihydro-3H-1,2,4-triazol-3-one hydrochloride] |
|  |  |  |  | 1 nM | > 100000 nM | 0.2 nM | > 10000 nM | NC/C(=C\F)Cn1ncn(-c2cccc(-c3ccc(C(=O)N4CCOCC4)cc3)c2)c1=O [Example 78, 2-[(2E)-2-(aminomethyl)-3-fluoroprop-2-en-1-yl]-4-[4′-(morpholin-4-ylcarbonyl)biphenyl-3-yl]-2,4-dihydro-3H-1,2,4-triazol-3-one hydrochloride] |
| 0.44 nM | 1470 nM | < 30 nM | > 10000 nM |  |  |  |  | CC(=O)Nc1ccc(-c2cccc(-n3cnn(C/C(=C/F)CN)c3=O)n2)cc1 [Example 175, N-[4-(6-{1-[(2E)-2-(aminomethyl)-3-fluoroprop-2-en-1-yl]-5-oxo-1,5-dihydro-4H-1,2,4-triazol-4-yl}pyridin-2-yl)phenyl]acetamide] |
| 1.8 nM | 12000 nM | 3 nM | 73 nM |  |  |  |  | NC/C(=C\F)Cn1ncn(-c2cccc(-c3cccc4c3oc3ccccc34)n2)c1=O [Example 203, 2-[(2E)-2-(aminomethyl)-3-fluoroprop-2-en-1-yl]-4-[6-(dibenzo[b,d]furan-4-yl)pyridin-2-yl]-2,4-dihydro-3H-1,2,4-triazol-3-one hydrochloride] |
| 6.5 nM | 6240 nM | 2 nM | 3140 nM |  |  |  |  | Cc1cc(-n2cnn(C/C(=C/F)CN)c2=O)ncc1-c1ccc2sc(N)nc2c1 [Example 161, 4-[5-(2-amino-1,3-benzothiazol-5-yl)-4-methylpyridin-2-yl]-2-[(2E)-2-(aminomethyl)-3-fluoroprop-2-en-1-yl]-2,4-dihydro-3H-1,2,4-triazol-3-one hydrochloride] |
|  |  |  |  | 0.62 nM | > 100000 nM | < 100 nM | > 10000 nM | NC/C(=C\F)Cn1ncn(-c2cccc(-c3ccc(-c4nnc[nH]4)cc3)c2)c1=O [Example 59, 2-[(2E)-2-(aminomethyl)-3-fluoroprop-2-en-1-yl]-4-[4′-(4H-1,2,4-triazol-3-yl)biphenyl-3-yl]-2,4-dihydro-3H-1,2,4-triazol-3-one] |
|  |  |  |  | 4.7 nM | 76400 nM | 68 nM | 9320 nM | NC/C(=C\F)Cn1ncn(-c2cccc(-c3cccc4[nH]ccc34)c2)c1=O [Example 98, 2-[(2E)-2-(aminomethyl)-3-fluoroprop-2-en-1-yl]-4-[3-(1H-indol-4-yl)phenyl]-2,4-dihydro-3H-1,2,4-triazol-3-one hydrochloride] |
|  |  |  |  | 0.88 nM | 2100 nM | 47 nM | 8 nM | NC/C(=C/F)Cn1ncn(-c2ccc(OCc3ccccc3)cc2)c1=O [Example 7, 2-[(2Z)-2-(aminomethyl)-3-fluoroprop-2-en-1-yl]-4-[4-(benzyloxy)phenyl]-2,4-dihydro-3H-1,2,4-triazol-3-one] |
| 1 nM | > 100000 nM | 240 nM | 1300 nM |  |  |  |  | CN1CCOc2cc(-c3cccc(-n4cnn(C/C(=C/F)CN)c4=O)n3)ccc21 [Example 202, 2-[(2E)-2-(aminomethyl)-3-fluoroprop-2-en-1-yl]-4-[6-(4-methyl-3,4-dihydro-2H-1,4-benzoxazin-7-yl)pyridin-2-yl]-2,4-dihydro-3H-1,2,4-triazol-3-one hydrochloride] |
